The viability is a read-out of living cells in per cent, often relative to untreated cells.

Series [1] concerns Human non-small-cell lung carcinoma H460 cells. Description: Cancer cell inhibition in vitro, crystal violet staining, cell viability. The class given is cell-based. Particulars: for V(%) cancer cell viability / Absorbency of Stained Cells (M ± SD) / viability at 40 µg/mL / viability at 25 µg/mL: H460 cells, 24 hours; for Absorbency of Stained Cells (M ± SD): 590 nm; for inhibitory effect on proliferation of H460 cells (in words): P<0.01 compared with control; for viability at 40 µg/mL / viability at 25 µg/mL: Homo sapiens, NCI-H460, read-out: V(%) cancer cell viability; for inhibitory effect on proliferation of H460 cells compared with Rh2 (in words): P<0.05 compared with that of Rh2. As to the method:
Composition: 20(S)-Rh2 was provided by Shenyang Pegasus Pharmaceutical R&D Co., China, with a purity of over 98%. The molecular weight for Rh2 was 622.3. Sapogenins PAM-120, PBM-100 and PAN-30 were derived from the process stated in Example 1. The molecular weights of PAM-120, PBM-100 and PAN-30 were respectively 442.7, 474.7 and 766.6, and the purity for each of the three agents was higher than 99%. Rh2, PAM-120, PBM-100 and PAN-30 were dissolved 1 gram each separately in 100 ml absolute ethanol and stored at 4° C. the agents were diluted with RPMI-1640 medium to the desired concentrations as shown in Table 1.
Cells: Human non-small-cell lung carcinoma H460 cells were incubated in RPMI-1640 medium added with 10% fetal calf serum, 100 units penicillin/ml, and 100 μg streptomycin/ml in 5% CO2 at 37° C.
In vitro treatment: H460 cells were seeded in 96-well flat-bottomed microtest-plates at 1.2×10^3 cells per well, six wells in each group, incubated in humidified 5% CO2 at 37° C. for 24 hours with or without the agents according to the schedule as shown below.
After the 24 hours of incubation, an equal volume of 10% formalin phosphate-buffered saline containing 0.2% crystal violet was added to each well and left at room temperature for 20 minutes. The plates were then washed twice with distilled water and dried at room temperature. The absorbency of the stained cells at 590 nm was then measured using an automatic microtest-plate reader. Average absorbency of the control wells (Ac) without any treatment was calculated, average absorbency of each treatment group (ATi) was determined, and then the average cell viability of each treatment group (Vi) was derived using the following formula: [formula] B. Result

The next series has as its system Murine sarcoma 180 cells. Description: Cancer bearing mice life prolongation test. The class given is in vivo, C57BL/6J mice. Particulars: for DS50 (days of survival for 50% animals) / LPR(%) life prolongation rate: oral, lifetime or up to 120 days. From the text: Fifty (50) C57BL/6J mice weighing 18-22 g, without sex discrimination, were randomly assigned to one control group and four treatment groups, each with 10 animals. Murine sarcoma 180 cells were intraperitoneally transplanted to the mice. 20(S)-Rh2 was provided by Shenyang Pegasus Pharmaceutical R&D Co., China, with a purity of over 98%. The molecular weight for Rh2 was 622.3. The novel sapogenin PAM-120 was derived from the process described in Example 2 according to this invention. The molecular weight of PAM-120 was 442.7, and the purity for PAM-120 was higher than 99%. The drugs were prepared into a suspension form respectively. The mice were weighed daily prior to drug administration to determine the actual measurement of drug administered. Drug administration started from 24 hours post tumor inoculation. The mice in the two low-dose treatment groups were orally given the Rh2 and PAM-120 preparations using a gastric catheter at a daily dose of 10 mg/kg of Rh2 and 10 mg/kg of PAM-120 respectively for a lifetime or up to 120 days. The mice in the two high-dose treatment groups were orally given the Rh2 and PAM-120 preparations using a gastric catheter at a daily dose of 25 mg/kg of Rh2 and 25 mg/kg of PAM-120 respectively for a lifetime or up to 120 days. The mice in the control group were orally given a normal saline. For each group, the days of survival for 50% animals (DS50) and the average days of survival (ADS) were recorded. For groups containing one or more animals that could have lived longer than 120 days (the designed sacrifice day was d 120), the ADS would be so calculated that these animals were counted as if they had died on day 120, and a note would be made. The life prolongation rate (LPR) was calculated with the following formula: [formula] B. Result

For series [2], the system named is human malignant glioma cells (U87). Description: Mouse subcutaneous human malignant glioma (U87) model (FIG. 6). The class given is in vivo, Nude mice. Particulars: 25 mg/ml; for tumor growth compared with PBS control animals (in words): treatment from day 7, tumor sizes measured day 7 and day 24. As to the method:
FIG. 6 illustrates a graph of the therapeutic effect of PAM-120 on mouse subcutaneous human malignant glioma (U87) model. Nude mice were subcutaneously implanted with human malignant glioma cells (U87). On day 7 post tumor implantation, animals were treated with 25 mg/ml PAM-120 or equal dose of Rh2. Tumor sizes were measured on day 7 (before treatment) and day 24 (after the treatment).

The test system is the same in series [3]. The series can be described thus: Mouse intracranial human malignant glioma (U87) model (FIG. 5). Particulars: 25 mg/kg and 50 mg/kg, treatment from day 10 post implantation, p<0.01 Kaplan Meier. It counts as in vivo, Nude mice. As to the method: FIG. 5 illustrates a graph of the therapeutic effect of PAM-120 on mouse intracranial human malignant glioma (U87) model. Nude mice were intracranially implanted with human malignant glioma cells (U87). On day 10 post tumor implantation, animals were treated with various dosages of PAM-120.

For “3-O-[β-D-glucopyranosyl(1→2)-β-D-glucopyranosyl]-dammara-20(22E)-diene-3,12-diol [PAN-30]”, in series [1] (high-dose 40 μg/ml), the “V(%) cancer cell viability” value is 41.49% and the “Absorbency of Stained Cells (M ± SD)” value is given as “.147 ± .032”. In series [1] (low-dose 25 μg/ml), the “V(%) cancer cell viability” value came out at 70.30% and the “Absorbency of Stained Cells (M ± SD)” value is “.249 ± .045”. Besides, in series [1], the “inhibitory effect on proliferation of H460 cells (in words)” value is given as “significant inhibitory effect”.
For the compound `CC(C)=CCC[C@](C)(O)[C@H]1CC[C@]2(C)[C@@H]1[C@H](O)C[C@@H]1[C@@]3(C)CC[C@H](O[C@@H]4O[C@H](CO)[C@@H](O)[C@H](O)[C@H]4O)C(C)(C)[C@@H]3CC[C@]12C` [Rh2, 3-O-β-D-glucopyranosyl-20(s)-protopanaxadiol, reference compound], the “V(%) cancer cell viability” value in series [1] (high-dose 40 μg/ml) amounted to 50.99%; in series [1] (low-dose 25 μg/ml), 78.49%. Further, the “Absorbency of Stained Cells (M ± SD)” value in series [1] (high-dose 40 μg/ml) was “.181 ± .049”; in series [1] (low-dose 25 μg/ml), “.278 ± .030”. Besides, the entries for the “DS50 (days of survival for 50% animals)” value with Murine sarcoma 180 cells (10 mg/kg daily) and in the series on Murine sarcoma 180 cells (25 mg/kg daily) were 22 days and 41 days, respectively. The “LPR(%) life prolongation rate” value in the series on Murine sarcoma 180 cells (10 mg/kg daily) is recorded as 68.0%; in the series on Murine sarcoma 180 cells (25 mg/kg daily), 201.4%. For the same compound, the “tumor growth compared with PBS control animals (in words)” value in series [2] is given as “significantly inhibited tumor growth”.
Turning to `C=C(C)[C@H](O)C/C=C(\C)C1CC[C@]2(C)C1[C@H](O)CC1[C@@]3(C)CC[C@H](O)C(C)(C)C3[C@@H](O)C[C@]12C` (stereo partly drawn) [PBM-100], in series [1] (high-dose 40 μg/ml), the “Absorbency of Stained Cells (M ± SD)” value is reported as “.130 ± .019” and the viability at 40 µg/mL stood at 36.5%. In addition, in series [1] (low-dose 25 μg/ml), the “Absorbency of Stained Cells (M ± SD)” value is recorded as “.223 ± .040” and the viability at 25 µg/mL was found to be 62.7%. Also, in series [1], the “inhibitory effect on proliferation of H460 cells (in words)” value is “significant inhibitory effect” and the “inhibitory effect on proliferation of H460 cells compared with Rh2 (in words)” value is recorded as “notable increase in inhibitory effect”.
Consider `C=C(CCC=C(C)C)C1CC[C@]2(C)C1[C@H](O)CC1[C@@]3(C)CC[C@H](O)C(C)(C)C3CC[C@]12C` (stereo partly drawn) [PAM-120, Dammara-20(21)-diene-3,12-diol], for which, in series [1] (high-dose 40 μg/ml), the “Absorbency of Stained Cells (M ± SD)” value is “.125 ± .031” and the viability at 40 µg/mL is 35.3%. Also, in series [1] (low-dose 25 μg/ml), the “Absorbency of Stained Cells (M ± SD)” value was “.220 ± .051” and the viability at 25 µg/mL turned out to be 62.1%. Moreover, in series [1], the “inhibitory effect on proliferation of H460 cells (in words)” value is given as “significant inhibitory effect” and the “inhibitory effect on proliferation of H460 cells compared with Rh2 (in words)” value is reported as “notable increase in inhibitory effect”. The “mice that survived the whole 120 days, no tumors found postmortally” value in the series on Murine sarcoma 180 cells (25 mg/kg treatment group, 10 animals) was “Two”. Also, the “anti-cancer effect on murine sarcoma compared with Rh2 (in words)” value with Murine sarcoma 180 cells (P<0.01 compared with relevant Rh2 treatment dose groups) was “Better anti-cancer effect”. For the same compound, the “life prolongation of mice bearing murine sarcoma compared with control (in words)” value in the series on Murine sarcoma 180 cells (P<0.01 compared with the average days of survival in the control) was “significant increase in life prolongation”. In addition, in the series on Murine sarcoma 180 cells (10 mg/kg daily), the “DS50 (days of survival for 50% animals)” value came out at 38 days and the “LPR(%) life prolongation rate” value was found to be 162.6%. In addition, in the series on Murine sarcoma 180 cells (25 mg/kg daily), the “DS50 (days of survival for 50% animals)” value is given as 77 days and the “LPR(%) life prolongation rate” value is 448.3%. The “survival time after tumor implantation (in words)” value in series [3] is reported as “significantly longer survival time”. Moreover, the “tumor sizes compared with Rh2 treated animals (in words)” value in series [2] (equal dose of Rh2, day 24, p<0.05) is given as “significantly smaller”. The “tumor growth compared with PBS control animals (in words)” value in series [2] is on record as “significantly inhibited tumor growth”.

The values above are taken from patent publication US6888014B2, “Dammarane sapogenins, their use as anti-cancer agents, and a process for producing same” (PanaGin Pharmaceuticals Inc., priority 2001, dated 2005).
